Results as given in patent US20260007613A1, “LONG-ACTING LOW-TOXICITY NOVEL CATIONIC LIPID COMPOUNDS AND COMPOSITION THEREOF” (BEIJING YOUCAREKECHUANG PHARMACEUTICAL TECHNOLOGY CO., LTD., priority 2023, published 2026).

How the values were obtained:
[1] = Particle size and polydispersity index (PDI) of lipid nanoparticles by dynamic light scattering; type: physicochemical; details: LNP formulation prepared from the cationic lipid, 25° C.
Method: The particle size and polydispersity index (PDI) were determined by dynamic light scattering using Malvern laser particle size analyzer.
10 μL of the liposome solution was weighed, diluted to 1 mL with RNase-free deionized water, and added to the sample pool. Each sample was measured in triplicate. The measurement conditions were: […] scattering angle, and 25° C.

293T cells [2] = assay: Fluorescent detection of Fluc-mRNA (cell transfection efficiency of LNP formulations); type: cell-based; details: for Relative light unit (RLU): LNP formulation of Fluc-mRNA, 96-well plate, 24 hours; for Multiples (YK-305): RLU of YK-305 / RLU of the lipid of the line; for Multiples (YK-310): RLU of YK-310 / RLU of the lipid of the line; for Multiples (YK-312): RLU of YK-312 / RLU of the lipid of the line; for Multiples (YK-318): RLU of YK-318 / RLU of the lipid of the line; for Multiples (YK-318) / Multiples (YK-319): Tables 5, 7, 11; for Multiples (YK-319): RLU of YK-319 / RLU of the lipid of the line; for Ratio relative to SM-102: RLU of the lipid / RLU of SM-102, times that of SM-102
Method: (§1) Cell recovery and passage: 293T cells were recovered, cultured in a culture dish, and passaged to the required number of cells.
(§2) Seeding plate: The cells in the culture dish were digested and counted. Cells were spread in a 96-well plate at 10,000 cells per well and in a 12-well plate at 150,000 cells per well. Cells were cultured overnight until the cells adhered to the wall.
(§3) Cell recovery and passage: the method was the same as in Example 3.
(§4) Seeding plate: the method was the same as in Example 3.
An LNP formulation containing […] of Fluc-mRNA (the carrier components of the LNP formulation were cationic lipid, neutral lipid, structured lipid and polymer-conjugated lipid with a molar ratio of 49:10:39.5:1.5, wherein the cationic lipid was listed in Table 1) was added to the cell culture medium of a 96-well plate, and further incubated for 24 hours. The corresponding reagent was added according to the instructions of the […] Luciferase Assay Kit, and the fluorescence expression intensity of each well was detected by an IVIS fluorescence detection system. This test verified the transfection efficiencies of LNP formulations in cells, see Tables 4-7 for specific test results.

293T cells [3] = assay: Cell survival rate determination (CCK-8); type: cell-based; details: LNP formulation of Fluc-mRNA, 24 hours, CCK-8
Method: as §1, §2, §3, §4
An LNP formulation containing […] of Fluc-mRNA (the carrier components of the LNP formulation were cationic lipid, neutral lipid, structured lipid and polymer-conjugated lipid with a molar ratio of 49:10:39.5:1.5, wherein the cationic lipid was listed in Table 1) and the formulation of Lipofectamine 3000 were added to the cell culture medium of a 96-well plate, and further cultivated for 24 hours. 10 μL of CCK-8 solution was then added to each well, and the culture plate was incubated in an incubator for 1 hour. The absorbance at 450 nm was measured by a microplate reader.
Cell survival rate can represent the toxicity of cationic lipids to cells. The higher the cell survival rate, the lower the toxicity to cells.

female BALB/C mice = assay: Live imaging in mice: protein expression of Fluc-mRNA delivered by LNP formulations; type: in vivo
Method: In addition, the protein expression and duration of mRNA in mice delivered by the cationic lipid delivery carriers designed were also verified.
(§5) The LNP formulation containing […] Fluc-mRNA was injected intramuscularly into female BALB/C mice aged 4 to 6 weeks old and weighed 17 to 19 g, and the mice were intraperitoneally injected with fluorescent imaging substrate at specific time points after administration (6 h, 24 h, 48 h and 7 d), where the mice were free to move for 5 minutes, and then the average radiation intensity (corresponding to fluorescence expression intensity) of the protein expression of the mRNA carried by the LNP in the mice was detected by the IVIS Spectrum small animal live imaging device.

liver = assay: Distribution of liposomes in mice: protein expression in the liver (live imaging); type: in vivo; details: at 6 h, intramuscular injection
Method: as §5
At 24 h, the LNP formulations prepared from all compounds had been metabolized in the liver and had no protein expression.

[4] = 6 h after intramuscular injection
[5] = 24 h after intramuscular injection
[6] = 48 h after intramuscular injection
[7] = 7 d after intramuscular injection

CCCCCCC(CCCCCC)CCOC(=O)CCCCCCCN(CCO)CCCCCCCC(=O)OCCC(CCCCCC)CCCCCC [Compound 23, bis(3-hexylnonyl)-8,8′-((2-hydroxyethyl)azanediyl)dioctanoate, reference compound]
PDI (%) [1]: 15.2% | Particle size (nm) [1]: 147 nm | Relative light unit (RLU) (293T cells [2]): 1356022 RLU | Multiples (YK-305) (293T cells [2]): 20.21 | Multiples (YK-310) (293T cells [2]): 19.02 | Multiples (YK-312) (293T cells [2]): 14.86 | Multiples (YK-318) (293T cells [2]): 8.25 | Multiples (YK-319) (293T cells [2]): 18.04 | Ratio relative to SM-102 (293T cells [2]): 0.85 | Cell survival rate (%) (293T cells [3]): 71.50% | average radiation intensity (female BALB/C mice; [4]): 589400 | average radiation intensity (female BALB/C mice; [5]): 104530 | average radiation intensity (female BALB/C mice; [6]): 33125 | average radiation intensity (female BALB/C mice; [7]): 6240 | protein expression in the liver (liver): had protein expression in the liver

CCCCCCCCC(CCCCCCCC)OC(=O)CCCCCCCN(CCO)CCCCCCCC(=O)OCCC(CCCCCC)CCCCCC [Compound 21, reference compound]
Relative light unit (RLU) (293T cells [2]): 1432170 RLU | Multiples (YK-305) (293T cells [2]): 19.14 | Multiples (YK-310) (293T cells [2]): 18.01 | Multiples (YK-312) (293T cells [2]): 14.07 | Multiples (YK-318) (293T cells [2]): 7.81 | Multiples (YK-319) (293T cells [2]): 17.08 | Ratio relative to SM-102 (293T cells [2]): 0.89 | Cell survival rate (%) (293T cells [3]): 70.21% | average radiation intensity (female BALB/C mice; [4]): 610340 | average radiation intensity (female BALB/C mice; [5]): 109840 | average radiation intensity (female BALB/C mice; [6]): 30980 | average radiation intensity (female BALB/C mice; [7]): 6445 | protein expression in the liver (liver): had protein expression in the liver

CCCCCCCCCCCOC(=O)CCCCCN(CCO)CCCCCCCC(=O)OC(CCCCCCCC)CCCCCCCC [SM-102, reference compound]
PDI (%) [1]: 28.2% | Particle size (nm) [1]: 177 nm | Multiples (YK-310) (293T cells [2]): 16.08 | Multiples (YK-312) (293T cells [2]): 12.56 | Multiples (YK-318) (293T cells [2]): 6.98 | Multiples (YK-319) (293T cells [2]): 15.25 | Ratio relative to SM-102 (293T cells [2]): 1.00 | Cell survival rate (%) (293T cells [3]): 69.45% | average radiation intensity (female BALB/C mice; [4]): 701230 | protein expression in the liver (liver): had protein expression in the liver

CCCCCCCCCCOC(=O)CCCN(CCCCCC(=O)OCCC(CCCCCC)CCCCCC)C[C@H](O)CN(CC)CCO [YK-309, (S)-3-hexylnonyl-6-(4-(decyloxy)-4-oxobutyl)(2-hydroxy-3-(((2-hydroxyethyl)(ethyl)amino)propyl)amino)hexanoate]
PDI (%) [1]: 27.6% | Particle size (nm) [1]: 232 nm | Relative light unit (RLU) (293T cells [2]): 125370 RLU | Multiples (YK-305) (293T cells [2]): 218.62 | Multiples (YK-310) (293T cells [2]): 205.77 | Multiples (YK-312) (293T cells [2]): 160.71 | Ratio relative to SM-102 (293T cells [2]): 0.08 | Cell survival rate (%) (293T cells [3]): 31.61% | average radiation intensity (female BALB/C mice; [4]): 65680 | average radiation intensity (female BALB/C mice; [5]): 16820 | average radiation intensity (female BALB/C mice; [6]): 6551 | average radiation intensity (female BALB/C mice; [7]): 1256

CCCCCCCCC(CCCCCCCC)OC(=O)CCCCCN(CCCCCC(=O)OC(CCCCCCCC)CCCCCCCC)C[C@H](O)CN(CC)CCO [YK-313]
PDI (%) [1]: 17.7% | Particle size (nm) [1]: 241 nm | Relative light unit (RLU) (293T cells [2]): 866536 RLU | Multiples (YK-305) (293T cells [2]): 31.63 | Multiples (YK-310) (293T cells [2]): 29.77 | Multiples (YK-312) (293T cells [2]): 23.25 | Ratio relative to SM-102 (293T cells [2]): 0.54 | Cell survival rate (%) (293T cells [3]): 68.93% | average radiation intensity (female BALB/C mice; [4]): 442180 | average radiation intensity (female BALB/C mice; [5]): 104430 | average radiation intensity (female BALB/C mice; [6]): 25560 | average radiation intensity (female BALB/C mice; [7]): 3235 | protein expression in the liver (liver): no protein expression in the liver

CCCCCCCCCCCCC(O)CN(C)CCCCCC(=O)OCC(CCCCCC)CCCCCCCC (stereo not shown) [HHMA, reference compound]
PDI (%) [1]: 19.3% | Particle size (nm) [1]: 150 nm | Relative light unit (RLU) (293T cells [2]): 2006110 RLU | Multiples (YK-305) (293T cells [2]): 13.66 | Multiples (YK-310) (293T cells [2]): 12.86 | Multiples (YK-312) (293T cells [2]): 10.04 | Multiples (YK-318) (293T cells [2]): 5.58 | Multiples (YK-319) (293T cells [2]): 12.20 | Ratio relative to SM-102 (293T cells [2]): 1.25 | Cell survival rate (%) (293T cells [3]): 66.47% | average radiation intensity (female BALB/C mice; [4]): 651020 | average radiation intensity (female BALB/C mice; [5]): 119940 | average radiation intensity (female BALB/C mice; [6]): 32557 | average radiation intensity (female BALB/C mice; [7]): 5871 | protein expression in the liver (liver): had protein expression in the liver

CCCCCCCCCCC(CCCCCCCCCC)CCCOC(=O)CCCN(CCCC(=O)OCCCC(CCCCCCCCCC)CCCCCCCCCC)C[C@H](O)CN(CCO)CCO [YK-321, (S)-bis(4-decyltetradecyl)-4,4′-((3-(bis(2-hydroxyethyl)amino)-2-hydroxypropyl)azanediyl)dibutyrate]
PDI (%) [1]: 39.1% | Particle size (nm) [1]: 182 nm | Relative light unit (RLU) (293T cells [2]): 1403416 RLU | Multiples (YK-305) (293T cells [2]): 18.33 | Multiples (YK-310) (293T cells [2]): 18.38 | Multiples (YK-312) (293T cells [2]): 14.36 | Multiples (YK-318) (293T cells [2]): 7.97 | Multiples (YK-319) (293T cells [2]): 17.43 | Ratio relative to SM-102 (293T cells [2]): 0.87 | Cell survival rate (%) (293T cells [3]): 72.34% | average radiation intensity (female BALB/C mice; [4]): 615600 | average radiation intensity (female BALB/C mice; [5]): 101230 | average radiation intensity (female BALB/C mice; [6]): 36565 | average radiation intensity (female BALB/C mice; [7]): 6586

CCCCCCCCCCOC(=O)CCCN(CCO)CCCCCC(=O)OCC(CCCCCCCC)CCCCCCCC [YK-009, reference compound]
PDI (%) [1]: 18.1% | Particle size (nm) [1]: 192 nm | Relative light unit (RLU) (293T cells [2]): 5118942 RLU | Multiples (YK-305) (293T cells [2]): 5.35 | Multiples (YK-310) (293T cells [2]): 5.04 | Multiples (YK-312) (293T cells [2]): 3.94 | Multiples (YK-318) (293T cells [2]): 2.19 | Multiples (YK-319) (293T cells [2]): 4.78 | Ratio relative to SM-102 (293T cells [2]): 3.19 | Cell survival rate (%) (293T cells [3]): 72.55% | average radiation intensity (female BALB/C mice; [4]): 1004580 | average radiation intensity (female BALB/C mice; [5]): 754120 | average radiation intensity (female BALB/C mice; [6]): 110140 | average radiation intensity (female BALB/C mice; [7]): 9984
